Measured values taken from patent US20220372066A1, “HUMAN SQUALAMINE DERIVATIVES (ENT-06), RELATED COMPOSITIONS COMPRISING THE SAME, AND METHOD OF USING THE SAME” (Enterin, Inc., priority 2019, published 2022).

Experiments:
[1] = system: mouse stomach RNA transcriptome; experiment: RNAseq of stomach transcriptome in old mice after oral squalamine (Example 1); format: in vivo; conditions: oral dosing 14 days
Experimental: The dosing schedule used to determine the effect of orally administered squalamine and ENT-02 (MSI-1436) on the GI tracts of young and old mice was as follows. Male C57B1/6 mice, aged 20 and 78 weeks, were obtained from Jackson labs. Animals were exposed to 12 hr light dark cycles and provided Teklad standard mouse diet and water ad lib.
Animals were dosed once daily by oral gavage in the morning for a total of 14 days. Animals were fasted 3-4 hours prior to dosing and 1 hour following. The test article was dissolved in 0.5% hydroxypropylcellulose in water. On day 15 the animals were euthanized by C02 asphyxiation, necropsied, and tissues prepared for histology and RNAseq analysis.
The GI tracts of the animals were sectioned into stomach, duodenum, jejunum, ileum, caecum, colon, and rectum. The tissues were then sent for histology, and the transcriptomes analyzed by RNAseq.

[2] = system: mouse stomach tissues gene expression; experiment: Treatment induced gene expression in mouse stomach tissues, RNA-sequencing, differential expression by fold change (Example 3); format: in vivo; conditions: for Number of significant features, Down-regulated, fold change threshold 1.3× / Number of significant features, Down-regulated, fold change threshold 2× / Number of significant features, Down-regulated, fold change threshold 4× / Number of significant features, Down-regulated, fold change threshold 8× / Number of significant features, Down-regulated, fold change threshold 16× / Number of significant features, Down-regulated, fold change threshold Any / Number of significant features, Up-regulated, fold change threshold 1.3× / Number of significant features, Up-regulated, fold change threshold 2× / Number of significant features, Up-regulated, fold change threshold 4× / Number of significant features, Up-regulated, fold change threshold 8× / Number of significant features, Up-regulated, fold change threshold 16× / Number of significant features, Up-regulated, fold change threshold Any: stomach
[3] = system: murine stomach tissue gene expression profile; experiment: Congruence analysis of differentially expressed stomach genes, ENT-01 vs ENT-06; format: in vivo, mouse
Text: Genes that were differentially expressed in response to ENT-01 treatment, as identified in this study, were compared to those that were associated with ENT-06 treatments, respectively. ENT-06 treatment-associated gene expression changes were identified previously. Across all contrasts at the relevant statistical thresholds used to identify significant features, there were ten or less genes that changed in expression upon both treatments (ENT-01 and ENT-06). Note that this included the gene expression changes associated with ageing.
Congruence analysis was performed between the contrasts Specifically, the analysis compared the effects of human- or shark-origin compound analogues on murine stomach tissue gene expression profile as follows: ENT-01 was compared to ENT-06. Scatter plots, upset plots, venn diagrams, hypergeometric tests and Spearman rank correlation tests were employed to assess the level of overlap. […] Whereas the ENT-01 contrasts in this study defined significant genes using a cutoff of greater than four-fold change in expression.
Congruence between these sets of genes was then assessed by comparing ENT-01-affected genes to those of ENT-06. […] The symbol U denotes the universe. Overlap was assessed between ENT-01 vs control (young) (202 genes) and ENT-06 vs untreated (young) (26 genes). 10 genes overlapped between the two sets when not considering direction of change. […] The Spearman rank correlation between the genes in the two sets was −0.1313.
Congruence analysis for: ENT-01 vs ENT-06 (old) was also conducted. […] Overlap was assessed between ENT-01 vs control (old) (383 genes) and ENT-06 vs untreated (old) (55 genes). 1 genes overlapped between the two sets when not considering direction of change. This is no more than would be expected by chance (p=0.5057). The Spearman rank correlation between the genes in the two sets was 0.003217.

[4] = system: mice with constipation due to overexpression of human αS; conditions: orally administered; cited from earlier work
[5] = target: sodium-hydrogen exchanger (“NHE-3”) (Oryctolagus cuniculus, UniProt P26432); conditions: Akhter, Nath et al. 1999; cited from earlier work
[6] = cutoff greater than four-fold change in expression
[7] = Old vs young mice, both treated
[8] = treatment vs control (old mice)
[9] = treatment vs control (young mice)

Chain of sodium-hydrogen exchanger (“NHE-3”) (P26432 30-832): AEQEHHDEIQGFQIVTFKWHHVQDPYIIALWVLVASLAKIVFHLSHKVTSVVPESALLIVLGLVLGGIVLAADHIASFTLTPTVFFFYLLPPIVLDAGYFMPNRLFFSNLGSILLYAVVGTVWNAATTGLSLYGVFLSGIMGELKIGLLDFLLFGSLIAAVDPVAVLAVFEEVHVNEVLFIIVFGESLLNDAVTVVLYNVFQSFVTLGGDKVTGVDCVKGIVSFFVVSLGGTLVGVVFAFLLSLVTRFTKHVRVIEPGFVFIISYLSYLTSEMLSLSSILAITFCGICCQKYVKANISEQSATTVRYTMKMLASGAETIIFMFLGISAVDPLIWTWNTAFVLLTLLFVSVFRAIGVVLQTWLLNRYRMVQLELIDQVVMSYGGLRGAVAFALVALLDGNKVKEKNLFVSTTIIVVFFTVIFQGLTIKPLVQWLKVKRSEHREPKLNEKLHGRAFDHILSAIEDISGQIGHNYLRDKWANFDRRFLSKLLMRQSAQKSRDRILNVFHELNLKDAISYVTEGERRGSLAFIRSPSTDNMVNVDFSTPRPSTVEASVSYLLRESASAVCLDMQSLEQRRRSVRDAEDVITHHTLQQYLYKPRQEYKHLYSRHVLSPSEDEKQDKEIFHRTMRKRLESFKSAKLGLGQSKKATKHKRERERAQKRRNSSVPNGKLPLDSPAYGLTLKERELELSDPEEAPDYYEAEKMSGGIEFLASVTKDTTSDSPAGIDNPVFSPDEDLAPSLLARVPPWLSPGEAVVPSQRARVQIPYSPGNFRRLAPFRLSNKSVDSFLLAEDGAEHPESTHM

SMILES: CC(C)[C@@H](CC[C@@H](C)[C@H]1CC[C@H]2[C@@H]3[C@H](O)C[C@H]4C[C@@H](NCCCNCCCCN)CC[C@]4(C)[C@H]3CC[C@]12C)OS(=O)(=O)O (single isomer, unassigned) [ENT-01, squalamine]
- mRNA levels for all of the genes of Table 3 after treatment [1]: significant increase
- overlap of genes downregulated in aged mice with genes up-regulated in response to treatment in old mice ([2]; hypergeometric P<0.0001): overlapped significantly
- number of significant genes, treatment vs control (old) [3, 6]: 383 genes
- number of significant genes, treatment vs control (young) [3, 6]: 202 genes
- gastro-intestinal motility [4]: stimulates gastro-intestinal motility
- inhibition of NHE-3 [5]: inhibit

SMILES: CC(C)[C@@H](CC[C@@H](C)[C@H]1CC[C@H]2[C@@H]3[C@H](O)C[C@H]4C[C@@H](NCCCNCCCCNCCCN)CC[C@]4(C)[C@H]3CC[C@]12C)OS(=O)(=O)O (single isomer, unassigned) [ENT-02 (MSI-1436), trodusquemine]
- Number of significant features, Down-regulated, fold change threshold 1.3× [2, 7]: 1986
- Number of significant features, Down-regulated, fold change threshold 2× [2, 7]: 314
- Number of significant features, Down-regulated, fold change threshold 4× [2, 7]: 63
- Number of significant features, Down-regulated, fold change threshold 8× [2, 7]: 8
- Number of significant features, Down-regulated, fold change threshold 16× [2, 7]: 4
- Number of significant features, Down-regulated, fold change threshold Any [2, 7]: 7344
- Number of significant features, Up-regulated, fold change threshold 1.3× [2, 7]: 2644
- Number of significant features, Up-regulated, fold change threshold 2× [2, 7]: 676
- Number of significant features, Up-regulated, fold change threshold 4× [2, 7]: 190
- Number of significant features, Up-regulated, fold change threshold 8× [2, 7]: 78
- Number of significant features, Up-regulated, fold change threshold 16× [2, 7]: 39
- Number of significant features, Up-regulated, fold change threshold Any [2, 7]: 7669
- Number of significant features, Down-regulated, fold change threshold 1.3× [2, 8]: 1395
- Number of significant features, Down-regulated, fold change threshold 2× [2, 8]: 203
- Number of significant features, Down-regulated, fold change threshold 4× [2, 8]: 38
- Number of significant features, Down-regulated, fold change threshold 8× [2, 8]: 7
- Number of significant features, Down-regulated, fold change threshold 16× [2, 8]: 1
- Number of significant features, Down-regulated, fold change threshold Any [2, 8]: 7597
- Number of significant features, Up-regulated, fold change threshold 1.3× [2, 8]: 2109
- Number of significant features, Up-regulated, fold change threshold 2× [2, 8]: 657
- Number of significant features, Up-regulated, fold change threshold 4× [2, 8]: 298
- Number of significant features, Up-regulated, fold change threshold 8× [2, 8]: 139
- Number of significant features, Up-regulated, fold change threshold 16× [2, 8]: 42
- Number of significant features, Up-regulated, fold change threshold Any [2, 8]: 7416
- Number of significant features, Down-regulated, fold change threshold 1.3× [2, 9]: 2429
- Number of significant features, Down-regulated, fold change threshold 2× [2, 9]: 531
- Number of significant features, Down-regulated, fold change threshold 4× [2, 9]: 120
- Number of significant features, Down-regulated, fold change threshold 8× [2, 9]: 43
- Number of significant features, Down-regulated, fold change threshold 16× [2, 9]: 16
- Number of significant features, Down-regulated, fold change threshold Any [2, 9]: 7667
- Number of significant features, Up-regulated, fold change threshold 1.3× [2, 9]: 1860
- Number of significant features, Up-regulated, fold change threshold 2× [2, 9]: 232
- Number of significant features, Up-regulated, fold change threshold 4× [2, 9]: 30
- Number of significant features, Up-regulated, fold change threshold 8× [2, 9]: 7
- Number of significant features, Up-regulated, fold change threshold 16× [2, 9]: 1
- Number of significant features, Up-regulated, fold change threshold Any [2, 9]: 7346

SMILES: C[C@H](CCC[C@@H](C)[C@H]1CCC2C3C(CC[C@@]21C)[C@@]1(C)CC[C@H](NCCCNCCCCN)C[C@@H]1C[C@H]3O)C(=O)O (single isomer, unassigned) [ENT-06, 3-β-Spermidino-7α-hydroxy-5α-cholestanoic acid]
- Spearman rank correlation between the genes in the ENT-01 and ENT-06 sets ([3]; old mice): 0.003217
- overlap of genes down-regulated in ageing and up-regulated in treatment, ENT-01 vs ENT-06 ([3]; old mice): did not overlap
- genes overlapping with ENT-01 vs control (old) set, not considering direction of change ([3]; old mice, p=0.5057): 1 genes
- number of significant genes, treatment vs untreated (old) ([3]; threshold FDR-adjusted P<0.05): 55 genes
- number of significant genes, treatment vs untreated (young) ([3]; threshold FDR-adjusted P<0.05): 26 genes
- genes overlapping with ENT-01 vs control (young) set, not considering direction of change ([3]; young mice, p=1.721e−16): 10 genes
- Spearman rank correlation between the genes in the ENT-01 and ENT-06 sets ([3]; young mice, p=5.678e−57): −0.1313
